According to patent US5686461A, “Indole derivatives” (Glaxo Wellcome S.p.A., priority 1993, dated 1997):
Where a name gives a salt, the structure may show the parent alone. Read-outs that look alike come from different tables or passages of the source.

Columns and labels:
[1] = system: NMDA induced convulsions; assay: inhibition of NMDA induced convulsions in the mouse (procedure of Chiamulera C et al.); assay type: in vivo
Excerpt: In this test the ability of the compound to inhibit the generalized seizures induced by an intracerebroventricular injection of NMDA in mice was examined at a number of dose levels. […] This expressed as mg/kg is referred to as the ED50 value.

[2] = target: T1, strychnine insensitive glycine binding site located on the NMDA receptor complex (Rattus norvegicus, UniProt P35439); assay: biochemical
T1 construct: from tissue

[3] = mouse, intravenous, NMDA given intracerebroventricularly, read-out: ED50 (dose required to protect 50% of the animals from the convulsive action of NMDA), iv
[4] = mouse, oral, NMDA given intracerebroventricularly, read-out: ED50 (dose required to protect 50% of the animals from the convulsive action of NMDA), po

| SMILES | Ki [2] [nM] | further results |
| --- | --- | --- |
| O=C(/C=C/c1c(C(=O)[O-])[nH]c2cc(Cl)cc(Cl)c12)NC12CC3CC(CC(C3)C1)C2.[Na+] | – | ED50 ([1]; Mus musculus, iv, read-out: ED50 (dose required to protect 50% of the animals from the convulsive action of NMDA), iv): 0.02 mg/kg; ED50 ([1]; Mus musculus, po, read-out: ED50 (dose required to protect 50% of the animals from the convulsive action of NMDA), po): 5.47 mg/kg |
| O=C(/C=C/c1c(C(=O)O)[nH]c2cc(Cl)cc(Cl)c12)N[C@@H]1C[C@H]2CC[C@@H]1C2 (relative stereo) [Example 10b, (E)-3-(2'-exo-2-norbornylcarbamoyl)ethenyl)-4,6-dichloroindole-2-carboxylicacid sodium salt] | 20 | ED50 [1, 3]: 0.01 mg/kg; ED50 [1, 4]: 11.1 mg/kg |
| O=C(/C=C/c1c(C(=O)O)[nH]c2cc(Cl)cc(Cl)c12)N[C@H]1C[C@H]2CC[C@@H]1C2 (relative stereo) [Example 11, (E) 3-[2-endo-2-norbornylcarbamoyl)ethenyl]4,6-dichloroindole-2-carboxylic acid sodium salt] | 10 | – |
| O=C(/C=C/c1c(C(=O)O)[nH]c2cc(Cl)cc(Cl)c12)NC12CC3CC(CC1C3)C2 [Example 14, (E) 3-[2'-(noradamantyl-3"-aminocarbonyl)ethenyl]-4,6-dichloroindole-2-carboxylic acid sodium salt] | 26.3 | ED50 [1, 3]: 0.05 mg/kg; ED50 [1, 4]: 6 mg/kg |
| CC1(C)[C@@H]2CC[C@@]1(C)[C@@H](NC(=O)/C=C/c1c(C(=O)O)[nH]c3cc(Cl)cc(Cl)c13)C2 [Example 16, (E) 3-[2'-(1"-R-bornyl-2"-aminocarbonyl)ethenyl]-4,6-dichloroindole-2 carboxylic acid sodium salt] | 39.8 | – |
| O=C(/C=C/c1c(C(=O)O)[nH]c2cc(Cl)cc(Cl)c12)NC1C2CC3CC(C2)CC1C3 (stereo not drawn) [Example 17, (E) 3-[2'-(2"-adamantylaminocarbonyl)ethenyl]-4,6-dichloroindole-2-carboxylic acid sodium salt] | 25.1 | – |
| O=C(/C=C/c1c(C(=O)[O-])[nH]c2cc(Cl)cc(Cl)c12)NC12CC3CC(CC(C3)C1)C2.[Na+] [sodium salt] | 63.1 | – |
